{"source": "the OPERA property sets (Mansouri et al. 2018)", "data": [{"details": "not given", "units": {"melting point": "°C", "boiling point": "°C"}, "values": [{"smiles": "CC(=O)NN", "melting point": 67}, {"smiles": "Cc1ccc(CBr)cc1", "boiling point": 220, "melting point": 35}, {"smiles": "Cc1ccc(F)cc1", "boiling point": 117, "log10 vapour pressure (mmHg)": 1.32, "melting point": -56}, {"smiles": "CCCC(C)(C)CC", "boiling point": 112, "log10 biodegradation half-life (days)": 0.699, "log10 vapour pressure (mmHg)": 1.46, "melting point": -126}, {"smiles": "CCCCC/C=C\\C/C=C\\CCCCCCCC(=O)OC", "log10 vapour pressure (mmHg)": -5.44, "melting point": -35}, {"smiles": "CC(C)CC(=O)OC(=O)CC(C)C", "boiling point": 215}, {"smiles": "CC(CCO)C(F)(F)F", "note": "(centres undefined)", "boiling point": 140}, {"smiles": "O=C(O)CCc1cc(I)c(Oc2ccc(O)c(I)c2)c(I)c1", "melting point": 200}, {"smiles": "C1CC2CCC1CC2", "log10 vapour pressure (mmHg)": 0.523}, {"smiles": "Nc1ccccc1S", "boiling point": 234, "melting point": 26}, {"smiles": "CCCCCCC(C)C", "boiling point": 143, "log10 biodegradation half-life (days)": 0.699, "log10 vapour pressure (mmHg)": 0.793, "melting point": -80.3}, {"smiles": "OC(C(F)(F)F)(C(F)(F)F)C(F)(F)F", "boiling point": 45}, {"smiles": "OC1[C@@H](O)[C@H](O)C[C@@H](O)[C@@H]1O", "note": "(some centres undefined)", "melting point": 236}, {"smiles": "CCN1C(=O)NC(c2ccccc2)C1=O", "note": "(centres undefined)", "melting point": 94}, {"smiles": "CCCn1c(=O)[nH]c(=O)c2[nH]cnc21", "melting point": 288}, {"smiles": "C[C@H](NC(=O)[C@H](C)NC(=O)[C@@H](N)CCP(C)(=O)O)C(=O)[O-].[Na+]", "melting point": 160}, {"smiles": "Clc1ccc(-c2cccc(Cl)c2Cl)cc1", "log10 Henry constant (atm·m³/mol)": -3.85}, {"smiles": "CCCCCCCCCCCCCBr", "boiling point": 296, "log10 vapour pressure (mmHg)": -2.87, "melting point": 6.2}, {"smiles": "Oc1c(Cl)cc(Cl)cc1Sc1cc(Cl)cc(Cl)c1O", "melting point": 188}, {"smiles": "NS(=O)(=O)c1cc(C(=O)O)ccc1Cl", "melting point": 257}, {"smiles": "C[C@@H]1[C@@H](c2ccc(Cl)cc2)SC(=O)N1C(=O)NC1CCCCC1", "note": "(single isomer, unassigned)", "log10 Koc (L/kg)": 3.79, "log10 vapour pressure (mmHg)": -7.59, "melting point": 108}, {"smiles": "CNC(=O)ON=C(C)SC", "log10 Koc (L/kg)": 1.3, "log10 vapour pressure (mmHg)": -5.27, "melting point": 78}, {"smiles": "COCCC#N", "boiling point": 163}, {"smiles": "FCC(F)(F)C(F)F", "boiling point": 26, "log10 vapour pressure (mmHg)": 2.88, "melting point": -82}, {"smiles": "c1ccc2c(c1)-c1ccc3ccc4cccc5cc-2c1c3c45", "boiling point": 536, "log10 Henry constant (atm·m³/mol)": -6.46, "log10 Koc (L/kg)": 6.2, "log10 biodegradation half-life (days)": 2.52, "melting point": 164}, {"smiles": "[O-][n+]1onc2ccccc21", "melting point": 70}, {"smiles": "CCCCCCCCCC(C)=O", "boiling point": 232, "log10 Henry constant (atm·m³/mol)": -4.2, "log10 vapour pressure (mmHg)": -1.38, "melting point": 15}, {"smiles": "C[C@@]12C(=O)OC(=O)[C@]1(C)C1CCC2O1", "melting point": 218}, {"smiles": "OCc1cccc(Cl)c1", "boiling point": 237}, {"smiles": "CCCCCCCC/C=C\\CCCCCCCC(=O)[O-].[NH4+]", "melting point": 71}, {"smiles": "CCC(C)(Cl)CCl", "note": "(centres undefined)", "boiling point": 134}, {"smiles": "Cc1cccc(C)c1C", "boiling point": 176, "log10 Henry constant (atm·m³/mol)": -2.36, "log10 Koc (L/kg)": 2.8, "log10 biodegradation half-life (days)": 0.602, "log10 vapour pressure (mmHg)": 0.228, "melting point": -25.4, "ready biodegradability": "not readily biodegradable"}, {"smiles": "CC1=NCCN1", "boiling point": 196, "melting point": 107}, {"smiles": "COc1ccc(OC)c(Cl)c1", "ready biodegradability": "not readily biodegradable"}, {"smiles": "O=C[C@H](O)[C@@H](O)[C@H](O[C@@H]1O[C@H](CO)[C@@H](O)[C@H](O)[C@H]1O)[C@H](O)CO", "melting point": 240}, {"smiles": "O=C(O)c1c(Cl)ccc(Cl)c1O", "log10 Koc (L/kg)": 2.3}, {"smiles": "Cn1sc(Cl)cc1=O", "ready biodegradability": "not readily biodegradable"}, {"smiles": "CC(=O)CC(=O)Nc1ccccc1", "log10 vapour pressure (mmHg)": -4.28, "melting point": 86, "ready biodegradability": "readily biodegradable"}, {"smiles": "CC(=O)OCCC(C)C", "boiling point": 142, "log10 Henry constant (atm·m³/mol)": -3.23, "log10 Koa": 3.94, "log10 vapour pressure (mmHg)": 0.748, "melting point": -78.5}, {"smiles": "CC(=O)Nc1ccc(S(=O)(=O)Cl)cc1", "melting point": 149}, {"smiles": "O=C1CCC(c2ccccc2)CC1", "melting point": 79.5}, {"smiles": "Clc1cccc(Oc2ccc(Cl)c(Cl)c2)c1", "log10 vapour pressure (mmHg)": -3.91}, {"smiles": "CC1(C)C=CC=C(C(=O)O)C=C1", "melting point": 88.5}, {"smiles": "C(CC1CCNCC1)CC1CCNCC1", "boiling point": 329, "melting point": 67.1}, {"smiles": "CC#C[C@]1(O)CC[C@H]2[C@@H]3C[C@H](C)C4=CC(=O)CC[C@]4(C)[C@H]3CC[C@@]21C", "melting point": 102}, {"smiles": "O=C[O-].[Na+]", "melting point": 253}, {"smiles": "CCCCCCCCC(C)C", "boiling point": 189, "log10 vapour pressure (mmHg)": -0.22, "melting point": -48.9}, {"smiles": "CCC(CC)COC(C)=O", "boiling point": 162}, {"smiles": "O=C(c1ccccc1)C(O)c1ccccc1", "note": "(racemic)", "boiling point": 344, "log10 vapour pressure (mmHg)": -5.28, "melting point": 137}, {"smiles": "CON(C)C(=O)Nc1ccc(Oc2ccc3c(c2)OC(C)(OC)CC3(C)C)cc1", "note": "(centres undefined)", "melting point": 102}, {"smiles": "CCCCCCCCCCOC(=O)c1ccccc1C(=O)OCCCCCC", "melting point": -4}, {"smiles": "C=COC(=O)CC", "boiling point": 91.2, "melting point": -80, "ready biodegradability": "readily biodegradable"}, {"smiles": "COC(=O)C(=O)OC", "boiling point": 164, "log10 vapour pressure (mmHg)": 0.0584, "melting point": 54.3}, {"smiles": "OCN(CO)c1nc(N(CO)CO)nc(N(CO)CO)n1", "melting point": 137}, {"smiles": "OCc1ccccc1C(c1ccc(O)cc1)c1ccc(O)cc1", "melting point": 202}, {"smiles": "O=C(OC(=O)C(F)(F)C(F)(F)F)C(F)(F)C(F)(F)F", "boiling point": 73}, {"smiles": "CC(=O)CC(=O)O", "melting point": 36.5}, {"smiles": "O=[N+]([O-])c1ccc(Nc2ccccc2)cc1", "melting point": 135}, {"smiles": "O=C1C=CCCC1", "boiling point": 170, "melting point": -53}, {"smiles": "Cc1cc(C(C)(C)C)c(O)c(C(C)(C)C)c1", "boiling point": 265, "log10 vapour pressure (mmHg)": -2.29, "melting point": 71, "ready biodegradability": "readily biodegradable"}, {"smiles": "CCCCCCNC(=O)n1cc(F)c(=O)[nH]c1=O", "melting point": 110}, {"smiles": "CCCCCCN", "boiling point": 133, "log10 Henry constant (atm·m³/mol)": -4.57, "log10 vapour pressure (mmHg)": 0.954, "melting point": -22.9, "ready biodegradability": "readily biodegradable"}, {"smiles": "C=CCN", "boiling point": 53.3, "log10 vapour pressure (mmHg)": 2.38, "melting point": -88.2}, {"smiles": "C[Si](C)(Cl)CCl", "boiling point": 116}, {"smiles": "Oc1ccc(Cl)c2c1CCC2", "melting point": 92}, {"smiles": "COc1cc2c(c(O)c1OC)[C@H](C)NCC2", "melting point": 160}, {"smiles": "NCCNCCN", "boiling point": 207, "melting point": -39, "ready biodegradability": "not readily biodegradable"}, {"smiles": "CCOCOCOCC", "boiling point": 141}, {"smiles": "O=C(O)c1ccc2ccccc2c1", "log10 vapour pressure (mmHg)": -5.18, "melting point": 186, "ready biodegradability": "readily biodegradable"}, {"smiles": "Clc1ncccn1", "melting point": 67}, {"smiles": "FC(Cl)=C(Cl)Cl", "boiling point": 71, "melting point": -109}, {"smiles": "CO[C@H]1[C@H](O)[C@H](O[C@H]2CC[C@@]3(C=O)[C@H](CC[C@@H]4[C@@H]3CC[C@]3(C)[C@@H](C5=CC(=O)OC5)CC[C@]43O)C2)O[C@@H](C)[C@@H]1O", "melting point": 162}, {"smiles": "O=CC(Cl)Cl", "boiling point": 89.2, "log10 vapour pressure (mmHg)": 1.74}, {"smiles": "Nc1nnc(-c2ccc([N+](=O)[O-])o2)s1", "melting point": 280}, {"smiles": "Nc1cc(F)c(F)c(F)c1F", "melting point": 28}, {"smiles": "O=Cc1cccc2ccccc12", "boiling point": 292, "melting point": 33.5}, {"smiles": "CC(=O)c1ccccc1C", "boiling point": 214}, {"smiles": "Brc1cc(Br)c(Oc2cc(Br)c(Br)cc2Br)cc1Br", "logP": 7.9}, {"smiles": "CCOC(=O)C(C)Oc1ccc(Oc2nc3ccc(Cl)cc3o2)cc1", "note": "(centres undefined)", "log10 Koc (L/kg)": 3.98, "melting point": 86.2}, {"smiles": "Nc1nc(F)nc2c1ncn2[C@@H]1O[C@H](CO)[C@@H](O)[C@@H]1O", "melting point": 260}, {"smiles": "CC(C)C(O)C(C)C", "boiling point": 139, "log10 vapour pressure (mmHg)": 0.477}, {"smiles": "C=CC(Cl)Cl", "boiling point": 84.4, "log10 vapour pressure (mmHg)": 1.85}, {"smiles": "COC(=O)c1cccc(O)c1", "boiling point": 281, "melting point": 73}, {"smiles": "CCCC=CC(=O)OCC", "boiling point": 174}, {"smiles": "O=C(OCC(O)CO)c1ccccc1Nc1ccnc2c(C(F)(F)F)cccc12", "note": "(centres undefined)", "melting point": 180}, {"smiles": "CCCCCCCC", "boiling point": 126, "log10 Koa": 3.35, "log10 biodegradation half-life (days)": 0.954, "log10 vapour pressure (mmHg)": 1.15, "melting point": -56.8, "ready biodegradability": "readily biodegradable"}]}, {"details": "fish", "values": [{"smiles": "Clc1ccc(-c2cccc(Cl)c2Cl)cc1", "log10 biotransformation half-life (days)": 2.16}, {"smiles": "OCc1cccc(Cl)c1", "log10 BCF": 1.29}, {"smiles": "Cc1cccc(C)c1C", "log10 BCF": 2.29, "log10 biotransformation half-life (days)": -0.22}, {"smiles": "CCCCCCCCC(C)C", "log10 biotransformation half-life (days)": 0.1}, {"smiles": "Cc1cc(C(C)(C)C)c(O)c(C(C)(C)C)c1", "log10 BCF": 3.03, "log10 biotransformation half-life (days)": 0.32}, {"smiles": "NCCNCCN", "log10 BCF": 0.65}, {"smiles": "Brc1cc(Br)c(Oc2cc(Br)c(Br)cc2Br)cc1Br", "log10 BCF": 6.13}]}]}
